Measured values from PMC11876276, “LC–MS/MS quantification of bacterial and fungal signal peptides via direct injection: a case study of cross-kingdom communication” (Analytical and Bioanalytical Chemistry, 2025).

Assay: Peptide stability in fresh culture media (W0, MV, EMM)
Type: physicochemical
Experimental: Stability of the peptides was analyzed in freshly prepared media and in the supernatant from yeast cultivations in W0 and MV media. For this purpose, the yeast cultivations were initiated in 10 mL media with an optical density (OD600nm) of 1 and were cultivated for 24 h at 30 °C with continuous shaking. Subsequently, 2 mL of the culture was sampled and centrifuged at 5000 × g for 5 min. The resulting supernatant was removed and stored at -20 °C until LC–MS analysis. To study the time-dependent peptide stability, yeast supernatant and fresh culture medium with a volume of 900 µL each were spiked with 100 µL of a synthetic peptide mixture containing 10 µM of each α-factor and CSF in HPLC-grade water with 0.125% FA. The samples were analyzed immediately after sampling and subsequently over seven 3h intervals, in order to determine the remaining peptide concentrations. […]
The stability of the peptides also depends on their rate of enzymatic conversation through the action of proteases or peptidases (see review) secreted by cells during the cultivation. Therefore, the concentration of a peptide mixture (containing both α-factor and CSF) was monitored over a period of at least 18 h in the presence of fresh culture media or the supernatant of cultured yeast cells (harvested after 24 h). […]

In the case of “TYADFL RAYQSW NTFVNP DRPNL [P-factor, pheromone from S. pombe, obtained from Davids Biotechnologie]”, the “Peptide stability in EMM media” value (typical EMM media used for S. pombe, without and with 50 % ACN, LC-MS/MS, Fig. S7) is reported as “demonstrated”.
In the case of “WHWLQLKPQPMY [α-factor, signal peptide (pheromone) from S. cerevisiae, ordered from UMEX GmbH]”, the “Concentration over 18 h in fresh culture media” value (fresh W0 pH = 5.6 or MV pH = 6.5, 1 µM peptide, glass vessels, 3 h intervals, LC-MS/MS normalized peak area, Fig. S5) is reported as “remained nearly constant”.
